From BindingDB's records for doi:10.1021/jm00107a015 (Institute of Cancer Research, 1991)

experiment: Growth inhibition of thymidylate synthase(TS) in L1210 cells

Row | IC50 [nM] | Structure (SMILES)
1 | 117000 | CCN(Cc1ccc2ncnc(SC)c2c1)c1ccc(C(=O)NC(CCC(=O)O)C(=O)O)cc1 (stereo not drawn)
2 | 110 | C#CCN(Cc1ccc2nc[nH]c(=S)c2c1)c1ccc(C(=O)NC(CCC(=O)O)C(=O)O)cc1 (stereo not drawn)
3 | 260 | CCN(Cc1ccc2nc[nH]c(=S)c2c1)c1ccc(C(=O)NC(CCC(=O)O)C(=O)O)cc1 (stereo not drawn)
